{"source": "paper PMC6656724", "about": "(Communications Biology, 2019)", "key": {"PfKMO": {"target": "T1, PfKMO (Pseudomonas fluorescens, UniProt Q84HF5, C252S/C461S)", "T1 construct": "made in house; host or cells: E. coli BL21 (DE3)", "T1 sequence (Q84HF5 whole entry C252S/C461S)": "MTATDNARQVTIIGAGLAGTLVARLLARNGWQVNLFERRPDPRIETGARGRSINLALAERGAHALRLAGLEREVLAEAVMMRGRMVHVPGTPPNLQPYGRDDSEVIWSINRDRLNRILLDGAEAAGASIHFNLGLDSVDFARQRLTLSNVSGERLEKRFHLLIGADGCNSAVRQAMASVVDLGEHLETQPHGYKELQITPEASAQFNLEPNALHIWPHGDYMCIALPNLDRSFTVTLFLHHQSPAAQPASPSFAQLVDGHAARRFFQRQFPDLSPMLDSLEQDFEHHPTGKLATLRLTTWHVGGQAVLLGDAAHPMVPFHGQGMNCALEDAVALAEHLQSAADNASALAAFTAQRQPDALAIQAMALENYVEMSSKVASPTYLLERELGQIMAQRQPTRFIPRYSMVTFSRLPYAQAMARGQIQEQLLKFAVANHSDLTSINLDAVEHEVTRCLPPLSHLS", "assay": "Stopped-flow reduction of flavin cofactor by NADPH", "assay_type": "biochemical"}, "[1]": {"assay": "Mouse brain penetration study", "assay_type": "in vivo, female C57BL6 mice", "protocol": "Inhibitor 1 (and prodrugs 1a, 1b, 1c and 1d) was dosed as a bolus solution intravenously at 1 mg free base/kg (dose volume: 5 mL/kg; dose vehicle: 5% DMSO; 95% saline (inhibitor 1) or 5% DMSO; 40% PEG400; 55% MilliQ H2O (prodrugs 1a, 1b, 1c and 1d)) to female C57BL6 mice (n = 6). At 5 min and 60 min following intravenous bolus injection of test compound, mice (n = 3/timepoint) were placed under terminal anaesthesia with isofluorane. A blood sample was taken by cardiac puncture, the […] decapitated and the brain removed. Brain weight was noted and each brain homogenised with two volumes of methanol (2 mL/g brain). Each blood sample was diluted with distilled water (1:10). Diluted blood and the brain homogenates were then stored frozen until preparation and analysis by UPLC-MS/MS. For each mouse at each timepoint for 1, the concentration in brain (ng/g) was divided by the concentration in blood (ng/mL) to give a brain:blood ratio. The mean value obtained was quoted. For prodrugs 1a to 1d, only the concentration of 1 in blood (ng/mL) and brain (ng/g) was reported.\nA rapid and sensitive ultra-performance chromatography/tandem mass spectrometry (UPLC-MS/MS) method was developed and validated for the determination of inhibitor 1 and prodrug 1b (rat only). Chromatographic analysis was conducted on a Waters Acquity™ UPLC system. Chromatographic separation was performed with an Acquity™ UPLC BEH C18 column (50 × 2.1 mm, 1.7 µm, 130Å; Waters Corp.) maintained at 40 °C in a column oven. The mobile phase consisted of water with 0.01% formic acid and ACN with 0.01 % formic acid and it was delivered at a flow rate of 0.6 mL/min under gradient eluent conditions within an analysis cycle time of 3 min. The mass detection was conducted on a Waters Xevo™ TQs mass spectrometer equipped with a ScanWave™ technology. Quantitation of the analyte was performed in electrospray positive ionisation mode (ESI^+) using multiple reaction monitoring. The optimised fragmentation transition was m/z = 270.17 → 196.19 (mouse) or m/z = 270.17 → 223.76 (rat) for inhibitor 1 and m/z = 297.83 → 195.74 for prodrug 1b (rat).\nSample extraction for blood and brain homogenate was by protein precipitation (1:3 or 1:6) using ACN containing suitable internal standard. Extracts were vortexed followed by centrifugation (2800 rpm for 10 min). An aliquot of each supernatant was then diluted two-fold in distilled water ready for analysis by UPLC-MS/MS.\nThe weighted 1/x^2 calibration line was linear in the dynamic range of 1–5000 ng/mL for inhibitor 1 and 1–1000 ng/mL for prodrug 1b with a correlation coefficient (r^2) > 0.99 (inhibitor 1) or 0.98 (prodrug 1b). The quality control samples (QC) were prepared by using the same spiking scheme as the calibration samples and up to four different target concentration brain levels: 2 ng/mL (LQC), 40 ng/mL (MQC), 100 ng/mL (HQC) and 2000 ng/mL. Data collection, peak integration and calculations were performed using MassLynx software, version 2.1."}, "in vitro": {"assay": "in vitro", "assay_type": "in vitro ADME, canine", "conditions": "dog, MDCK", "protocol": "(§1) internal standard at each timepoint. […]\n(§2) including an analytical internal standard.\n(§3) Apparent permeability (Papp) values were determined from the relationship: […]\n(§4) Where V is the volume of each Transwell compartment (apical 125 µL, basolateral 600 µL), and concentrations are the relative MS responses for compound (normalized to internal standard) in the donor chamber before incubation and acceptor chamber at the end of the incubation. Area = area of cells exposed for drug transfer (0.33 cm 2).\n(§5) Efflux ratios (Papp B>A / Papp A>B) were calculated for each compound from the […]\n(§6) MDR1-MDCK cell line has been engineered to overexpress the efflux transporter, MDR1 (P-glycoprotein), and a finding of good permeability B>A, but poor […]\n(§7) order to confirm the involvement of MDR1 in any efflux seen, an “ef fective efflux ratio” (EER) was calculated by comparing compound efflux ratios (ER) in the two cell types, i.e. EER = ER (MDR1-MDCK)/ ER (wild-type MDCK). This ratio illustrates the effect of the over-expressed MDR1 normalised for the background movement of compound through the wild-type cells.\n(§8) Lucifer Yellow (LY) was added to the apical buffer in all wells to assess viability of the cell layer. As LY cannot freely permeate lipophilic barriers, a high degree of LY […]\n(§9) validity of other wells on the plate.\n(§10) Compound recovery from the wells was determined from MS responses (normalized to internal standard) in donor and acceptor chambers at the end of incubation compared to response in the donor chamber pre-incubation."}, "MDR1 (P-glycoprotein)": {"test_system": "MDR1 (P-glycoprotein)", "assay": "in vitro", "assay_type": "in vitro ADME, canine", "conditions": "dog", "protocol": "as §1, §2, §3, §4, §5, §6, §7, §8, §9, §10"}, "[2]": {"assay": "Kinetic solubility in PBS, pH 7.4 (2% DMSO)", "assay_type": "physicochemical", "conditions": "for solubility at 2 h: PBS with 2% DMSO, pH 7.4, aqueous buffer, kinetic from dmso stock, PBS, pH 7.4 (2% DMSO)"}}, "note": "Where two headings read alike, the source gives them in different places.", "data": [{"smiles": "Cc1cc2c(c(C)c1Cl)N(CC(=O)O)C(=O)CO2", "note": "[compound 1, (6-chloro-5,7-dimethyl-3-oxo-2,3-dihydro-4H-1,4-benzoxazin-4-yl) acetic acid]", "values": [{"measurement": "Reduction rate of flavin cofactor", "setting": "PfKMO; PfKMO with saturating ligand, 2 mM NADPH, 25 °C, anaerobic", "value": "0.13 ± 0.005", "unit": "s⁻¹"}, {"measurement": "Stimulation of KMO reduction by NADPH", "setting": "PfKMO; rapid mixing stopped-flow assays", "value": "do not stimulate"}, {"measurement": "concentration at 5 min", "setting": "[1]; C57BL6, mouse, whole blood, iv, female C57BL/6 mice, 1 mg/kg i.v. bolus, 5 min, read-out: Level in the blood (mean)", "value": "3780 ± 639", "unit": "ng/mL"}, {"measurement": "Brain penetrance (in words)", "setting": "[1]; mouse, 1 mg/kg i.v.", "value": "Minimal brain penetrance"}, {"measurement": "In brain", "setting": "[1]; mouse, 1 mg/kg i.v., 60 min, single mice, analyte inhibitor 1 (also after prodrugs) or 1h", "value": "≤ LLoQ"}, {"measurement": "Papp A→B at 1 h, 10 µM", "setting": "in vitro; pH 7.4, Papp A>B n=1, wild type MDCK", "value": 16, "unit": "×10⁻⁶ cm/s"}, {"measurement": "Papp A→B at 1 h, 10 µM", "setting": "in vitro; pH 7.4, Papp A>B n=2, wild type MDCK", "value": 11, "unit": "×10⁻⁶ cm/s"}, {"measurement": "Papp B→A at 1 h, 10 µM", "setting": "in vitro; pH 7.4, Papp B>A n=1, wild type MDCK", "value": 2.6, "unit": "×10⁻⁶ cm/s"}, {"measurement": "Papp B→A at 1 h, 10 µM", "setting": "in vitro; pH 7.4, Papp B>A n=2, wild type MDCK", "value": 2.3, "unit": "×10⁻⁶ cm/s"}, {"measurement": "Papp A→B at 1 h, 10 µM", "setting": "in vitro; pH 7.4, wild type MDCK, read-out: Papp A>B Mean", "value": 13.5, "unit": "×10⁻⁶ cm/s"}, {"measurement": "Papp B→A at 1 h, 10 µM", "setting": "in vitro; pH 7.4, wild type MDCK, read-out: Papp B>A Mean", "value": 2.45, "unit": "×10⁻⁶ cm/s"}, {"measurement": "recovery at 1 h, 10 µM", "setting": "in vitro; pH 7.4, wild type MDCK, read-out: Recovery A>B Mean", "value": 93.5, "unit": "%"}, {"measurement": "recovery at 1 h, 10 µM", "setting": "in vitro; pH 7.4, wild type MDCK, read-out: Recovery A>B n=1", "value": 100, "unit": "%"}, {"measurement": "recovery at 1 h, 10 µM", "setting": "in vitro; pH 7.4, wild type MDCK, read-out: Recovery A>B n=2", "value": 87, "unit": "%"}, {"measurement": "recovery at 1 h, 10 µM", "setting": "in vitro; pH 7.4, wild type MDCK, read-out: Recovery B>A Mean", "value": 108, "unit": "%"}, {"measurement": "recovery at 1 h, 10 µM", "setting": "in vitro; pH 7.4, wild type MDCK, read-out: Recovery B>A n=1", "value": 108, "unit": "%"}, {"measurement": "recovery at 1 h, 10 µM", "setting": "in vitro; pH 7.4, wild type MDCK, read-out: Recovery B>A n=2", "value": 109, "unit": "%"}, {"measurement": "Papp A→B at 1 h, 10 µM", "setting": "MDR1 (P-glycoprotein); MDCK-MDR1, pH 7.4, MDR1 MDCK, read-out: Papp A>B Mean", "value": 16, "unit": "×10⁻⁶ cm/s"}, {"measurement": "Papp B→A at 1 h, 10 µM", "setting": "MDR1 (P-glycoprotein); MDCK-MDR1, pH 7.4, MDR1 MDCK, read-out: Papp B>A Mean", "value": 2.1, "unit": "×10⁻⁶ cm/s"}, {"measurement": "recovery at 1 h, 10 µM", "setting": "MDR1 (P-glycoprotein); MDCK-MDR1, pH 7.4, MDR1 MDCK, read-out: Recovery A>B Mean", "value": 99, "unit": "%"}, {"measurement": "recovery at 1 h, 10 µM", "setting": "MDR1 (P-glycoprotein); MDCK-MDR1, pH 7.4, MDR1 MDCK, read-out: Recovery A>B n=1", "value": 107, "unit": "%"}, {"measurement": "recovery at 1 h, 10 µM", "setting": "MDR1 (P-glycoprotein); MDCK-MDR1, pH 7.4, MDR1 MDCK, read-out: Recovery A>B n=2", "value": 91, "unit": "%"}, {"measurement": "recovery at 1 h, 10 µM", "setting": "MDR1 (P-glycoprotein); MDCK-MDR1, pH 7.4, MDR1 MDCK, read-out: Recovery B>A Mean", "value": 84, "unit": "%"}, {"measurement": "recovery at 1 h, 10 µM", "setting": "MDR1 (P-glycoprotein); MDCK-MDR1, pH 7.4, MDR1 MDCK, read-out: Recovery B>A n=1", "value": 62, "unit": "%"}, {"measurement": "recovery at 1 h, 10 µM", "setting": "MDR1 (P-glycoprotein); MDCK-MDR1, pH 7.4, MDR1 MDCK, read-out: Recovery B>A n=2", "value": 106, "unit": "%"}, {"measurement": "Papp A→B at 1 h, 10 µM", "setting": "MDR1 (P-glycoprotein); MDCK-MDR1, pH 7.4, Papp A>B n=1, MDR1 MDCK", "value": 18, "unit": "×10⁻⁶ cm/s"}, {"measurement": "Papp A→B at 1 h, 10 µM", "setting": "MDR1 (P-glycoprotein); MDCK-MDR1, pH 7.4, Papp A>B n=2, MDR1 MDCK", "value": 14, "unit": "×10⁻⁶ cm/s"}, {"measurement": "Papp B→A at 1 h, 10 µM", "setting": "MDR1 (P-glycoprotein); MDCK-MDR1, pH 7.4, Papp B>A n=1, MDR1 MDCK", "value": 1.8, "unit": "×10⁻⁶ cm/s"}, {"measurement": "Papp B→A at 1 h, 10 µM", "setting": "MDR1 (P-glycoprotein); MDCK-MDR1, pH 7.4, Papp B>A n=2, MDR1 MDCK", "value": 2.4, "unit": "×10⁻⁶ cm/s"}, {"measurement": "Kinetic solubility (in words)", "setting": "[2]", "value": "good"}, {"measurement": "solubility at 2 h", "setting": "[2]; read-out: Solubility Mean", "value": 193, "unit": "µM"}, {"measurement": "solubility at 2 h", "setting": "[2]; read-out: Solubility n=1", "value": 191, "unit": "µM"}, {"measurement": "solubility at 2 h", "setting": "[2]; read-out: Solubility n=2", "value": 194, "unit": "µM"}]}]}
